Results taken from paper PMC11219871, “Epigenetic-based differentiation therapy for Acute Myeloid Leukemia” (Nature Communications, 2024).
Values joined by “and” are separate entries in the source; they are usually repeats but may differ in a detail not shown here. Identical values can stand only once.

Columns and labels:
cytochrome P450 2D6 = biological target: T1, cytochrome P450 2D6 (Homo sapiens, UniProt P10635); experiment: CYP inhibition in human liver microsomes; format: in vitro ADME; details: 10 µM
T1 construct: Corning Cat # 452117); tissue Corning 452117; host or cells: human liver microsomes
T1 sequence (P10635 whole entry): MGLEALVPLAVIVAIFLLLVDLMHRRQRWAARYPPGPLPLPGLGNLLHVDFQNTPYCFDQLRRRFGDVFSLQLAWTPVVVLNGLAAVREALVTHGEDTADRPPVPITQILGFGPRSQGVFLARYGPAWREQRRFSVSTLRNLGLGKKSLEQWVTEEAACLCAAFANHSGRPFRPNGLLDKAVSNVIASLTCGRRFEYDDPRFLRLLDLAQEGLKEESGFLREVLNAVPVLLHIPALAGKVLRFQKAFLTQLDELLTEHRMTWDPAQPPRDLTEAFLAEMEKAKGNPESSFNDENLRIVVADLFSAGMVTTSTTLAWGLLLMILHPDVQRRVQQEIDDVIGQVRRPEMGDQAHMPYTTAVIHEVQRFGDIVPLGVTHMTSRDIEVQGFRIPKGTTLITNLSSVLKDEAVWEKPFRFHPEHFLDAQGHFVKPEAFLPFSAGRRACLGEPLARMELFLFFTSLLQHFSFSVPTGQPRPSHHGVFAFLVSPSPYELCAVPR
Protocol: (§1) This study was conducted at Wuxi (http://www.wuxi.com/). The inhibitory effects of CM-444 and CM-1758 on five human cytochrome P450s (1A2, 2C9, 2C19, 2D6 and 3A4) were evaluated in human liver microsomes. Test compounds (10 µM final concentration) or control compounds (α-naphthoflavone, sulfaphenazole, (+)-N-3-benzylnirvanol, quinidine, ketoconazole; 3-µM final concentration), and the corresponding substrates for each P450 isoform (1A2: phenacetin, 10-µM final concentration; 2C9: diclofenac, 5-µM final concentration; 2C19: S-mephenytoin, 30-µM final concentration, 2D6: dextromethorphan, 5-µM final concentration; 3A4: midazolam, 2-µM final concentration) were incubated with human liver microsomes (0.2-mg/mL final concentration; Corning Cat # 452117) and NADPH cofactor (1-mM final concentration, Chem-impex Cat # 00616) for 10 min at 37 °C. The reaction was terminated by adding 400 µL of cold stop solution (200 ng/mL tolbutamide and labetalol in acetonitrile), and the samples were centrifuged at 1520 g for 20 min. Next, 200-μL aliquots of supernatants were diluted with 100 μL of ultra-pure water and shaken for 10 min. The samples were analyzed by LC-MS/MS using an analyte/internal standard peak area ratio. Test compounds and positive controls were tested in duplicate. The percentage of inhibition was calculated as the ratio of substrate metabolite detected in treated and non-treated wells.

cytochrome P450 1A2 = biological target: T2, cytochrome P450 1A2 (Homo sapiens, UniProt P05177); experiment: CYP inhibition in human liver microsomes; format: in vitro ADME; details: 10 µM
T2 construct: Corning Cat # 452117); tissue Corning 452117; host or cells: human liver microsomes
T2 sequence (P05177 whole entry): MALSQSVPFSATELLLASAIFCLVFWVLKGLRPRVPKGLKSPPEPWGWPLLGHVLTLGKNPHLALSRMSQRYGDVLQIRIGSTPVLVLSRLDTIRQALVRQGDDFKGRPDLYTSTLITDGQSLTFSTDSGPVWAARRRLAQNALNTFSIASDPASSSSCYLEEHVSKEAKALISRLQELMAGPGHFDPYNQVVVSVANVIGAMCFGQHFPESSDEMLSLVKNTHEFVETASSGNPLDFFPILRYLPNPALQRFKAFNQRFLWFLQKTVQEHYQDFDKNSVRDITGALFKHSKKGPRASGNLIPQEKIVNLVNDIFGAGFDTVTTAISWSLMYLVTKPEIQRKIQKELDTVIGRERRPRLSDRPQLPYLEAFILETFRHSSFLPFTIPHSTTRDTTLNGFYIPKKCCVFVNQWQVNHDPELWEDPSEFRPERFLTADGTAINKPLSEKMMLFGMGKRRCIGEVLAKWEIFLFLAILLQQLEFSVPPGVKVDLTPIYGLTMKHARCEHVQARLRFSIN
Protocol: as §1

cytochrome P450 2C9 = biological target: T3, cytochrome P450 2C9 (Homo sapiens, UniProt P11712); experiment: CYP inhibition in human liver microsomes; format: in vitro ADME; details: 10 µM
T3 construct: Corning Cat # 452117); tissue Corning 452117; host or cells: human liver microsomes
T3 sequence (P11712 whole entry): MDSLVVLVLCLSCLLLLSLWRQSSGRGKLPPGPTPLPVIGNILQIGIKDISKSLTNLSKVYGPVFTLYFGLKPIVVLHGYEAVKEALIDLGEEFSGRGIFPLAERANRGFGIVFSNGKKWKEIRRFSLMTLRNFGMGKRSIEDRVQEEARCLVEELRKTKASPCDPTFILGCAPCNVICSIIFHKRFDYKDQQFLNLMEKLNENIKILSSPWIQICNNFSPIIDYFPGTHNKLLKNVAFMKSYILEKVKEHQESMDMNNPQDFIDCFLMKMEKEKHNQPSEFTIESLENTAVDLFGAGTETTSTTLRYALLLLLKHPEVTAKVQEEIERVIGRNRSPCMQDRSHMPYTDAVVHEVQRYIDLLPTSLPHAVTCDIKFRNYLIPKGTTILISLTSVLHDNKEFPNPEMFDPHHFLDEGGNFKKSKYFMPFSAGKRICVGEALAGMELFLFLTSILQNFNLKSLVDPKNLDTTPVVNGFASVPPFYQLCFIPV
Protocol: as §1

cytochrome P450 3A4 = biological target: T4, cytochrome P450 3A4 (Homo sapiens, UniProt P08684); experiment: CYP inhibition in human liver microsomes; format: in vitro ADME; details: 10 µM
T4 construct: Corning Cat # 452117); tissue Corning 452117; host or cells: human liver microsomes
T4 sequence (P08684 whole entry): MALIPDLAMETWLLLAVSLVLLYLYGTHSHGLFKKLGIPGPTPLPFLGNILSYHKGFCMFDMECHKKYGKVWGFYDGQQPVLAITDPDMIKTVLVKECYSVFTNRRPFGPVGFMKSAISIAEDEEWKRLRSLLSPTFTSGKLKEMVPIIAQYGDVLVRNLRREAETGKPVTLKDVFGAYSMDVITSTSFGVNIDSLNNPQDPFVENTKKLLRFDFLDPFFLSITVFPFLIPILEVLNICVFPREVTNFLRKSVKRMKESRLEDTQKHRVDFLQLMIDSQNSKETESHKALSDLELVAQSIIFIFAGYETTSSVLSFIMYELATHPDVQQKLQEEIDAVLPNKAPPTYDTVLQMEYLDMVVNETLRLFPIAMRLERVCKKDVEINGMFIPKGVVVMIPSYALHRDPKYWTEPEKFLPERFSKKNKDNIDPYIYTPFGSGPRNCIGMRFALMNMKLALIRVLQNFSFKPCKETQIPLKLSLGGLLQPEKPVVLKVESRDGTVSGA
Protocol: as §1

cytochrome P450 2C19 = biological target: T5, cytochrome P450 2C19 (Homo sapiens, UniProt P33261); experiment: CYP inhibition in human liver microsomes; format: in vitro ADME; details: 10 µM
T5 construct: Corning Cat # 452117); tissue Corning 452117; host or cells: human liver microsomes
T5 sequence (P33261 whole entry): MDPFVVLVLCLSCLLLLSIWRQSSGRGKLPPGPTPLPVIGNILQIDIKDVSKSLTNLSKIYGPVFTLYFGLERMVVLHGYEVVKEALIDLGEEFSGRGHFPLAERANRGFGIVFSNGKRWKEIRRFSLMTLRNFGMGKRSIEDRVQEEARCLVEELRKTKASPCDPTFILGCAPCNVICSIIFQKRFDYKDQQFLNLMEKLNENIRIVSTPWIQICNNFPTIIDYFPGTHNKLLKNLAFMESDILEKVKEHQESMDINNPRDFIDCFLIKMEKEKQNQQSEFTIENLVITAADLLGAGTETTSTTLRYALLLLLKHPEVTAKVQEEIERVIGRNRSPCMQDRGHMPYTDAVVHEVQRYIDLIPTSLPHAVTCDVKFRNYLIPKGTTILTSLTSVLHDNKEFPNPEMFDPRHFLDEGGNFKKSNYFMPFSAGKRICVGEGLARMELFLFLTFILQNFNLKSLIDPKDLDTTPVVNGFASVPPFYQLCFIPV
Protocol: as §1

Rag2-/-γc-/- mice = experiment: Toxicity assay: hematological and liver parameters, liver histology; format: in vivo, mouse; details: for ALT (Counts (U/L)) / AST (Counts (U/L)) / Bilirubin (Counts (mg/dl)) / HDL (Counts (mmol/l)) / LCLC3 (Counts (mmol/l)) / UREA (Counts (mg/dl)) / Hematocrit (Counts (%)) / Hemoglobin (Counts (g/dl)) / PLT (Counts (K/O)) / RBC (Counts (K/O)) / WBC (Counts (K/O)): healthy Rag2-/-γc-/- mice, individual mice, 10 mg/kg; for ALT (Counts (U/L)) / AST (Counts (U/L)) / Bilirubin (Counts (mg/dl)) / HDL (Counts (mmol/l)) / LCLC3 (Counts (mmol/l)) / UREA (Counts (mg/dl)): 10 mg/kg i.p. daily for 3 weeks then 7-day washout; for Hematocrit (Counts (%)) / Hemoglobin (Counts (g/dl)) / PLT (Counts (K/O)) / RBC (Counts (K/O)) / WBC (Counts (K/O)): 10 mg/kg i.p. daily for 3 weeks
Protocol: After treating Rag2^−/−γc^−/− mice with i.p. […] Hematological and liver parameters were measured.
Hematological parameters, including white blood cells, red blood cells, platelet count, hemoglobin and hematocrit, were measured on a Hemavet Hematology Analyzer (Drew Scientific). Liver enzymes (albumin, alkaline phosphatase, aspartate transaminase, alanine transaminase), cholesterol, bilirubin, urea and bile acid levels were analyzed from mice serum using a C311 Cobas Analyzer (Roche Diagnostics).
Mice livers were fixed in paraformaldehyde at 4% for 6–8 h, washed twice with saline solution and stored in 70% ethanol. Samples were included in paraffin, and 3-µm serial sections were cut, deparaffinated, and stained with hematoxylin–eosin.

## COc1cc2nc(-c3ccc(C)o3)cc(NCC3CCN(c4ncc(C(=O)NO)cn4)CC3)c2cc1OC [CM-444, 2-[4-[[[6,7-dimethoxy-2-(5-methyl-2-furyl)-4-quinolyl]amino]methyl]-1-piperidyl]pyrimidine-5-carbohydroxamic acid]
Cytochrome P450 2D6
  P450S Inhibition (2D6): 10.8%
Cytochrome P450 1A2
  P450S Inhibition (1A2): 58.8%
Cytochrome P450 2C9
  P450S Inhibition (2C9): 0%
Cytochrome P450 3A4
  P450S Inhibition (3A4): 50.8%
Cytochrome P450 2C19
  P450S Inhibition (2C19): 5.6%
Rag2-/-γc-/- mice; 10 mg/kg i.p. daily over 3 weeks, 1-week washout, Rag2-/-γc-/- mice
  tolerability: well tolerated
Rag2-/-γc-/- mice; Week 3
  ALT (Counts (U/L)): 11.5 U/L and 2 U/L and 10.5 U/L
  AST (Counts (U/L)): 32 U/L and 193 U/L and 55.5 U/L and 92 U/L
  Bilirubin (Counts (mg/dl)): 0 mg/dl (2×) and 0.15 mg/dl and 0.05 mg/dl
  HDL (Counts (mmol/l)): 1.85 mmol/l (2×) and 0.7 mmol/l and 2.75 mmol/l
  LCLC3 (Counts (mmol/l)): 0.15 mmol/l and 0.25 mmol/l (2×) and 0.1 mmol/l
  UREA (Counts (mg/dl)): 11.5 mg/dL and 19.7 mg/dL and 22.3 mg/dL and 21.65 mg/dL
  Hematocrit (Counts (%)): 43.7% and 49.1% and 49.8% and 51%
  Hemoglobin (Counts (g/dl)): 11.4 g/dL and 17.4 g/dL and 17.9 g/dL and 18.3 g/dL
  PLT (Counts (K/O)): 730 K/O and 1171 K/O and 1358 K/O and 1362 K/O
  RBC (Counts (K/O)): 8.57 K/O and 10.02 K/O and 10.36 K/O and 10.9 K/O
  WBC (Counts (K/O)): 1.16 K/O and 8.64 K/O and 6.22 K/O and 6.1 K/O
Rag2-/-γc-/- mice; Week 4
  ALT (Counts (U/L)): 19.5 U/L and 11.7 U/L and 32.4 U/L and 21 U/L
  AST (Counts (U/L)): 128.4 U/L and 47.1 U/L and 73.2 U/L and 160.2 U/L
  Bilirubin (Counts (mg/dl)): 0.09 mg/dl (2×) and 0.06 mg/dl and 0.12 mg/dl
  HDL (Counts (mmol/l)): 2.61 mmol/l (2×) and 2.16 mmol/l and 2.58 mmol/l
  LCLC3 (Counts (mmol/l)): 0.3 mmol/l and 0.21 mmol/l (2×) and 0.24 mmol/l
  UREA (Counts (mg/dl)): 27.78 mg/dL and 27.48 mg/dL and 30.3 mg/dL and 24.12 mg/dL
Rag2-/-γc-/- mice; 7d Washout
  Hematocrit (Counts (%)): 52.1% and 56.9% and 53.3% and 53.1%
  Hemoglobin (Counts (g/dl)): 17.9 g/dL and 18 g/dL and 17.7 g/dL and 17.4 g/dL
  PLT (Counts (K/O)): 1470 K/O and 1489 K/O and 1608 K/O and 1482 K/O
  RBC (Counts (K/O)): 10.26 K/O and 10.79 K/O and 10.39 K/O and 10.19 K/O
  WBC (Counts (K/O)): 5.36 K/O and 7.2 K/O and 1.48 K/O and 3.02 K/O
Rag2-/-γc-/- mice; Week 1
  Hematocrit (Counts (%)): 47.7% and 44.8% and 42.1% and 46%
  Hemoglobin (Counts (g/dl)): 18 g/dL and 18.2 g/dL and 17.7 g/dL and 17.8 g/dL
  PLT (Counts (K/O)): 906 K/O and 830 K/O and 622 K/O and 877 K/O
  RBC (Counts (K/O)): 10.04 K/O and 9.45 K/O and 9.05 K/O and 9.73 K/O
  WBC (Counts (K/O)): 3.7 K/O and 3.24 K/O and 5.4 K/O and 2.32 K/O
Rag2-/-γc-/- mice; Week 2
  Hematocrit (Counts (%)): 50.2% and 53.9% and 53.4% and 41.4%
  Hemoglobin (Counts (g/dl)): 17.9 g/dL and 18.4 g/dL and 17.5 g/dL and 15.1 g/dL
  PLT (Counts (K/O)): 1887 K/O and 1805 K/O and 1778 K/O and 1467 K/O
  RBC (Counts (K/O)): 10.43 K/O and 10.72 K/O and 10.28 K/O and 8.62 K/O
  WBC (Counts (K/O)): 5.84 K/O and 4.8 K/O and 3.6 K/O and 7.26 K/O
